In PMC4960700, “In vivo and in vitro inhibition of rat liver glutathione transferases activity by extracts from Combretum zeyheri (Combretaceae) and Parinari curatellifolia (Chrysobalanaceae)” (BMC Complementary and Alternative Medicine, 2016):
In brackets after ≈: the same amount, converted by molar mass. Several values for one entry are separate records, joined by “and”; a condition that tells them apart may be missing. Equal values may be shown once.

Tests used:
rat liver GSTs = assay: In vitro GST enzyme assay (CDNB/GSH) with liver cytosolic fractions of control rats; type: biochemical, male Sprague–Dawley rats; details: CDNB substrate
Method: (§1) Throughout the procedure tissue fractions were kept cold (0–4 °C) by using pre-cooled homogenization medium (50 mM Tris–HCl containing 0.154 M KCl) and keeping centrifuge rotors, tissue homogenizer, measuring cylinders, beakers and centrifuge tubes in ice. Excess blood was removed from the liver by perfusing the livers with ice cold normal saline using a Pharmacia LKB pump P-1 (Pharmacia, Uppsala, Sweden) at a flow rate of 50 ml/h through the still beating heart then gently blotting with dry tissue paper. Perfusion was performed in situ to remove blood. The livers and kidneys were removed and blotted dry. The liver or kidney samples were, weighed, wet mass recorded and livers quickly transferred to a homogenizing vessel, which was kept, on ice. Homogenizing medium 50 mM Tris–HCl pH 7.4 containing 154 mM KCl was added to each sample (5 ml/g of liver). The liver or kidney samples were cut into suitable pieces and homogenized with a motor driven Potter-Elvehjem homogenizer type R2R (Heidolph Elektro KG., Kelheim, Germany). […] The final volume was recorded and “parafilm ^TM” (Sigma-Aldrich Co., Steinheim, Germany) was added to cover. […] Protein content in the liver and kidney cytosolic fractions was determined using the Lowry method. The total GST activity in cell supernatants was measured spectrophotometrically using final concentrations of 1 mM 1-chloro-2,4-dinitrobenzene (CDNB) and 1 mM glutathione, as substrates in 0.1 M potassium phosphate buffer pH 6.5, and GST (0.125 mg/ml protein). Cytosolic glutathione transferases activities were assessed using 0.5 mg/ml and 2 mg/ml enzyme dilutions for the liver and kidney samples respectively. […] GST mediated conjugation of 1-chloro-2, 4- dinitrobenzene (CDNB) to glutathione (GSH) was measured using 96-well microtitre plates in a microplate reader (Biokinetics reader EL 340 microplate, Highland Park, 998, Winsooki, VT, USA). […] After addition of CDNB, the plate was transferred to the microplate reader. The plate was read at 5-min intervals for a total of 15 min.

kidney GSTs = assay: In vitro GST enzyme assay (CDNB/GSH) with kidney cytosolic fractions of control rats; type: biochemical, male Sprague–Dawley rats; details: CDNB substrate
Method: as §1

- IC50 (rat liver GSTs; liver cytosol from corn oil-treated control group, P. curatellifolia experiments): 10 µg/mL (≈ 33 µM)
- IC50 (rat liver GSTs; liver cytosol from normal saline treated control group, P. curatellifolia experiments): 5.8 µg/mL and 6 µg/mL
- IC50 (rat liver GSTs; liver cytosol from saline-treated control group, C. zeyheri experiments): 5.4 µg/mL (≈ 17.8 µM)
- IC50 (kidney GSTs; kidney cytosol from corn oil-treated control group, P. curatellifolia experiments): 3.7 µg/mL (≈ 12.2 µM)
- IC50 (kidney GSTs; kidney cytosol from normal saline treated control group, P. curatellifolia experiments): 7.36 µg/mL and 7.4 µg/mL
- IC50 (kidney GSTs; kidney cytosol from saline-treated control group, C. zeyheri experiments): 10 µg/mL (≈ 33 µM)
Compound: C=C(CC)C(=O)c1ccc(OCC(=O)O)c(Cl)c1Cl [ETA, ethacrynic acid]
